Here are results for 8 compounds from ChEMBL document CHEMBL3797086, “Synthesis and biological evaluation of novel structural hybrids of benzofuroxan derivatives and fluoroquinolones” (Eur J Med Chem, 2016).

Converted amounts (≈) assume the structure as drawn.

Series [1] relates to Staphylococcus aureus. The experiment in a line: microbe, parasite or virus in culture. Particulars: 209p. Format: functional.
The subject of series [2] is Pseudomonas aeruginosa. In words: microbe, parasite or virus in culture. The series is classed as functional. Particulars: 9027.
Series [3] has as its system Bacillus cereus. The experiment in a line: microbe, parasite or virus in culture. Conditions: Bacillus cereus, 8035, 4 h. Format: functional.
In series [4] the test system is Escherichia coli. In words: microbe, parasite or virus in culture. Format: functional. Conditions: F-50.
In series [5] the test system is Pseudomonas aeruginosa. In words: microbe, parasite or virus in culture. Particulars: Pseudomonas aeruginosa, 9027, 4 h. The series is classed as functional.
A short description of series [6]: in vitro. Particulars: human.
Series [7] relates to Staphylococcus aureus. In words: microbe, parasite or virus in culture. Format: functional. Conditions: 209p, 4 h.
In series [8] the test system is Bacillus cereus. The experiment in a line: microbe, parasite or virus in culture. Format: functional. Particulars: 8035.
The test system of series [9] is Bacillus cereus. The experiment in a line: Potency index, ratio of lomefloxacin MBC to compound MBC for Bacillus cereus 8035. Format: functional.
Series [10] has as its system Escherichia coli. The experiment in a line: microbe, parasite or virus in culture. Format: functional. Conditions: F-50, 4 h.
The mark [11] stands for this setting: red blood cells (RBC), at 0.19 to 3.9 µg/mL.

With `CCn1cc(C(=O)O)c(=O)c2cc(F)c(N3CCNC(C)C3)c(F)c21.O=[N+]([O-])c1c(Cl)cc2c(no[n+]2[O-])c1O` (stereo not drawn), the MIC in [1] stood at 0.97 µg/mL; in series [2], 6.3 µg/mL; in series [4], 3.1 µg/mL; in series [8] it was 0.97 µg/mL. For the same compound, the MBC was found to be 1.5 µg/mL in [3], 12.5 µg/mL in series [5], 1.9 µg/mL in [7] and 12.5 µg/mL in [10]. In series [6] (setting [11]), this compound displayed a hemolysis at 1 h of no more than 1%. For the same compound, the Ratio in [9] was 8.

As to `CC1CN(c2c(F)c(N)c3c(=O)c(C(=O)O)cn(C4CC4)c3c2F)CC(C)N1.O=[N+]([O-])c1c(Cl)cc2c(no[n+]2[O-])c1O` (stereo not drawn), the MIC was found to be 0.39 µg/mL in series [1], 3.1 µg/mL in series [2], 1.5 µg/mL in [4] and 0.19 µg/mL in [8]. The MBC is 1.5 µg/mL in series [3], 6.3 µg/mL in [5], 0.39 µg/mL in series [7] and 1.5 µg/mL in series [10]. The compound also gave a hemolysis at 1 h in [6] (setting [11]) of no more than 1%.

With `O=C(O)c1cn(C2CC2)c2cc(N3CCNCC3)c(F)cc2c1=O.O=[N+]([O-])c1c(Cl)cc2c(no[n+]2[O-])c1O`, the MIC in series [1] was determined as 3.9 µg/mL; in series [2], 15.6 µg/mL; in series [8], 7.8 µg/mL. The MBC amounted to 62.5 µg/mL in series [3], 31.3 µg/mL in [5] and 7.8 µg/mL in series [7].

For `CCn1cc(C(=O)O)c(=O)c2cc(F)c(N3CCNCC3)cc21.O=[N+]([O-])c1c(Cl)cc2c(no[n+]2[O-])c1O`, the MIC in series [1] is 7.8 µg/mL; in [2] it was 31.3 µg/mL; in series [8] it was 7.8 µg/mL. Also, the MBC is 15.6 µg/mL in [3], greater than 500 µg/mL in series [5], 31.3 µg/mL in series [7] and greater than 500 µg/mL in [10]. In series [6] (setting [11]), the hemolysis at 1 h is no more than 1%.

Turning to `O=C(O)c1cn(C2CC2)c2cc(N3CCNCC3)c(F)cc2c1=O` [CIPROFLOXACIN], the MIC in [1] worked out at 0.19 µg/mL (≈ 0.573 µM); in series [2], 0.39 µg/mL (≈ 1.18 µM); in series [8], 0.39 µg/mL (≈ 1.18 µM). In addition, the MBC in series [3] amounted to 6.3 µg/mL (≈ 19 µM); in series [5], 3.1 µg/mL (≈ 9.36 µM); in [7], 1.5 µg/mL (≈ 4.53 µM); in series [10], 3.1 µg/mL (≈ 9.36 µM). This compound also gave a hemolysis at 1 h in [6] (erythrocyte) of no more than 1%.

For the compound `CCn1cc(C(=O)O)c(=O)c2cc(F)c(N3CCNC(C)C3)c(F)c21` (stereo not drawn) [LOMEFLOXACIN], the MIC stood at 0.78 µg/mL (≈ 2.22 µM) in [1], 6.3 µg/mL (≈ 17.9 µM) in series [2], 3.1 µg/mL (≈ 8.82 µM) in series [4] and 6.3 µg/mL (≈ 17.9 µM) in series [8]. The MBC in [3] is 12.5 µg/mL (≈ 35.6 µM); in series [5], 12.5 µg/mL (≈ 35.6 µM); in series [7], 3.1 µg/mL (≈ 8.82 µM); in series [10], 6.3 µg/mL (≈ 17.9 µM). This compound also showed a hemolysis at 1 h in series [6] (setting [11]) of no more than 1%.

`CCn1cc(C(=O)O)c(=O)c2cc(F)c(N3CCNCC3)cc21` [NORFLOXACIN]: the MIC in [1] amounted to 0.39 µg/mL (≈ 1.22 µM); in series [2] it was 3.1 µg/mL (≈ 9.71 µM); in series [4] it was 0.19 µg/mL (≈ 0.595 µM); in series [8], 1.5 µg/mL (≈ 4.7 µM). In addition, the MBC worked out at 3.1 µg/mL (≈ 9.71 µM) in series [3], 25 µg/mL (≈ 78.3 µM) in series [5], 6.3 µg/mL (≈ 19.7 µM) in series [7] and 3.1 µg/mL (≈ 9.71 µM) in series [10]. In series [6] (setting [11]), this compound had a hemolysis at 1 h of no more than 1%.

For the compound `C[C@@H]1CN(c2c(F)c(N)c3c(=O)c(C(=O)O)cn(C4CC4)c3c2F)C[C@H](C)N1` [SPARFLOXACIN], the MIC in [1] turned out to be 0.19 µg/mL (≈ 0.484 µM); in series [2], 0.78 µg/mL (≈ 1.99 µM); in series [4], 0.19 µg/mL (≈ 0.484 µM); in series [8], 0.19 µg/mL (≈ 0.484 µM). Besides, the MBC in series [3] was 3.1 µg/mL (≈ 7.9 µM); in series [5], 3.1 µg/mL (≈ 7.9 µM); in [7], 0.39 µg/mL (≈ 0.994 µM); in series [10], 3.1 µg/mL (≈ 7.9 µM). In addition, in series [6] (setting [11]), the hemolysis at 1 h is no more than 1%.
